According to patent publication US20100248390A1, “COMPOSITIONS AND METHODS FOR IDENTIFYING LIGANDS OF ODORANT RECEPTORS” (DUKE UNIVERSITY, priority 2009, published 2010):

Columns and labels:
[1] = biological target: T1, human odorant receptors (ORs) (Homo sapiens, UniProt Q8TCB6); experiment: CRE-luciferase assay of odorant receptor activation (Dual-Glo, Hana3A cells, RTP1S), dose-response EC50; format: cell-based
T1 construct: OR open reading frames were amplified from genomic DNA; expressed in transfected cells; host or cells: Hana3A cells, co-transfected with RTP1S, CRE-luciferase and pRL-SV40
T1 sequence (Q8TCB6 1-318): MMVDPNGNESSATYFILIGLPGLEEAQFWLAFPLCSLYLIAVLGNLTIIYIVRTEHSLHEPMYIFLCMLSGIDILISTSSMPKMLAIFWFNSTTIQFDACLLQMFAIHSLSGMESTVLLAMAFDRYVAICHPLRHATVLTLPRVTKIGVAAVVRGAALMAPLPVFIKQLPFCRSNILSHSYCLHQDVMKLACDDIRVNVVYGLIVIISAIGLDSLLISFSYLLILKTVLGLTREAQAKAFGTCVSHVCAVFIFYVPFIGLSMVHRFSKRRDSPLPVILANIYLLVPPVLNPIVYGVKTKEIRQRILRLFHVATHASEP
Summary of the method: (§1)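 Hana3A cells were co-transfected with Rho-tagged OR, RTP1S, CRE-luciferase and pRL-SV40, then exposed to odorant in CD293 medium for 4 hrs at 37° C. Firefly luminescence was divided by Renilla and normalized as (LN−Lmin)/(Lmax−Lmin) per plate set. Each dose was tested at least three times, and EC50 came from sigmoidal fits.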

[2] = biological target: T2, human odorant receptors (ORs) (Homo sapiens, UniProt Q8NGJ5); experiment: as above; format: cell-based
T2 construct: OR open reading frames were amplified from genomic DNA; expressed in transfected cells; host or cells: Hana3A cells, co-transfected with RTP1S, CRE-luciferase and pRL-SV40
T2 sequence (Q8NGJ5 1-315): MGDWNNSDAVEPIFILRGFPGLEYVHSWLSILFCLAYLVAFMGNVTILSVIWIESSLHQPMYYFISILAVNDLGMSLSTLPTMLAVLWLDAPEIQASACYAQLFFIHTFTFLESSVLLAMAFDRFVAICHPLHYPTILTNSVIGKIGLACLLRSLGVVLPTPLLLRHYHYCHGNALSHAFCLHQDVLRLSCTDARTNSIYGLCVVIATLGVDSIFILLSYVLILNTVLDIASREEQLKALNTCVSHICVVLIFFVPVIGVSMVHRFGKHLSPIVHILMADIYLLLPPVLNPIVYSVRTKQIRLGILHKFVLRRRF
Summary of the method: as §1

Row | Structure (SMILES) | EC50 [1] | EC50 [2]
1 | CCCCCCCCC(=O)O [Nonanoic acid] | 246 µM | –
2 | C=CCOC(=O)Cc1ccccc1 [Allyl phenylacetate] | – | 67.6 µM
